Where two headings read alike, the source gives them in different places.
Legend:
[1] = target: recombinant human His-tagged MDM2 protein (residues 1-118) (Homo sapiens (Human), UniProt Q00987); assay: Fluorescence-polarization MDM2 binding assay;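 further: fluorescence polarization read after three hours of incubation in potassium phosphate buffer containing bovine gamma globulin and Triton X-100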
Experimental: The assay was performed in the buffer: 100 mM potassium phosphate, pH 7.5; 100 μg/mL bovine gamma globulin; 0.02% sodium azide, 0.01% Triton X-100) and the polarization values were measured after 3 h of incubation using an ULTRA READER (Tecan U.S. Inc., Research Triangle Park, N.C.). […] The Kd value was calculated using the equation: Kd value=IC50−L0/2.
The polarization values were measured after 3 h of incubation. […] Curve fitting was performed using [sequence] PRISM software (GraphPad Software, Inc., San Diego, Calif.). […] Compounds shown in Tables 19A-D as the free base were tested either as the free base or as the CF3CO2H (TFA) or HCl salt.

[2] = system: Isogenic HCT-116 colon cancer cell lines; assay: cells; type: cell-based;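 further: cells grown in 96-well plates in McCoy's 5A medium with 10% FBS, exposed to compound for 4 days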
Experimental: Cells were seeded in 96-well flat bottom cell culture plates at a density of 2−3×10^3 cells/well with compounds and incubated for 4 days.

[3] = system: cancer cell lines with wild-type p53 / mutated or deleted p53 (ATCC); assay: Cell growth assay (WST-8), other cancer cell lines; type: cell-based
[4] = Table 19D, read-out: MDM2 Binding Affinities IC50
[5] = Homo sapiens, HCT-116, read-out: HCT116p53KO IC50, Table 19D, HCT116 p53KO
[6] = Homo sapiens, HCT-116, read-out: HCT116p53WT IC50, Table 19D, HCT116 p53WT
[7] = Homo sapiens, LNCaP, Table 19D, LNCaP cells, read-out: LNCaP IC50
[8] = Homo sapiens, PC-3, Table 19D, PC3 cells, read-out: PC3 IC50
[9] = Homo sapiens, Table 19D, SJSA-1 cells, unit inferred, read-out: SJSA-1
[10] = Table 19B, read-out: Binding affinities to MDM2 protein as determined by FP based assay IC50
[11] = Homo sapiens, HCT-116, read-out: Inhibition of cell growth IC50, HCT116 p53 KO, Table 19B, HCT116 p53 KO
[12] = Homo sapiens, HCT-116, read-out: Inhibition of cell growth IC50, HCT116 p53 WT, Table 19B, HCT116 p53 WT
[13] = Homo sapiens, LNCaP, Table 19B, LNCaP cells, read-out: Inhibition of cell growth IC50, LNCaP
[14] = Homo sapiens, PC-3, Table 19B, PC3 cells, read-out: Inhibition of cell growth IC50, PC3
[15] = read-out: Inhibition of cell growth IC50, HCT116 p53 KO, Table 19B, HCT116 p53 KO
[16] = read-out: Inhibition of cell growth IC50, HCT116 p53 WT, Table 19B, HCT116 p53 WT
[17] = Table 19B, LNCaP cells, read-out: Inhibition of cell growth IC50, LNCaP
[18] = Table 19B, PC3 cells, read-out: Inhibition of cell growth IC50, PC3

recombinant human His-tagged MDM2 protein (residues 1-118), sequence (Q00987 1-118): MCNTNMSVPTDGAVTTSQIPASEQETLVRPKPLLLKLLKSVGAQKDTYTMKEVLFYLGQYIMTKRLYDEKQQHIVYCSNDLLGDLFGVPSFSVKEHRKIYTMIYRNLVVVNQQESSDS

Compound	IC50 [1, 10] [µM]	IC50 [2, 11] [µM]	IC50 [2, 12] [µM]	IC50 [3, 13] [µM]	IC50 [3, 14] [µM]	further results
CC(C)(C)C[C@H]1N[C@@H](C(=O)N[C@H]2CC[C@@H](N)C2)[C@H](c2cccc(Cl)c2F)[C@@]12C(=O)Nc1cc(Cl)ccc12 [MI-519-55]	–	–	–	–	–	IC50 [1, 4]: < 1 µM; IC50 [2, 5]: > 5 µM; IC50 [2, 6]: < 2 µM; IC50 [3, 7]: < 2 µM; IC50 [3, 8]: > 3 µM; IC50 [3, 9]: < 3 µM
CC(C)(C)C[C@H]1N[C@@H](C(=O)NC2CCN(CCF)CC2)[C@H](c2cccc(Cl)c2F)[C@@]12C(=O)Nc1cc(Cl)ccc12 [MI-519-56]	–	–	–	–	–	IC50 ([1]; Table 19A, FP binding assay, read-out: MDM2 IC50): < 1 µM; IC50 ([2]; Homo sapiens, HCT-116, read-out: HCT-116 (p53 wild-type) IC50, Table 19A, HCT-116 p53 wild-type, cell growth): < 1 µM; IC50 ([3]; Homo sapiens, LNCaP, Table 19A, LNCAP cells, p53 wild-type, cell growth, read-out: LNCAP (p53 wild-type) IC50): > 10 µM; IC50 ([3]; Homo sapiens, SJSA-1, Table 19A, SJSA-1 cells, p53 wild-type, cell growth, read-out: SJSA-1 (p53 wild-type) IC50): < 1 µM
CC(C)(C)C[C@H]1N[C@@H](C(=O)NC2CCN(CCC(F)(F)F)CC2)[C@H](c2cccc(Cl)c2F)[C@@]12C(=O)Nc1cc(Cl)ccc12 [MI-519-57-1]	–	–	–	–	–	IC50 [1, 4]: < 1 µM; IC50 [2, 5]: 9.5 µM; IC50 [2, 6]: < 3 µM; IC50 [3, 7]: < 3 µM; IC50 [3, 8]: 8.8 µM; IC50 [3, 9]: < 3 µM
CN1CC[C@@H](NC(=O)[C@@H]2N[C@H](CC(C)(C)C)[C@]3(C(=O)Nc4cc(Cl)ccc43)[C@H]2c2cccc(Cl)c2F)[C@@H](F)C1 [MI-519-58]	–	–	–	–	–	IC50 [1, 4]: < 1 µM; IC50 [2, 5]: > 10 µM; IC50 [2, 6]: < 3 µM; IC50 [3, 7]: < 3 µM; IC50 [3, 8]: > 10 µM; IC50 [3, 9]: < 3 µM
CC(C)(C)C[C@H]1N[C@@H](C(=O)N[C@@H]2CCN(CCF)C[C@@H]2F)[C@H](c2cccc(Cl)c2F)[C@@]12C(=O)Nc1cc(Cl)ccc12 [MI-519-59]	–	–	–	–	–	IC50 [1, 4]: < 1 µM; IC50 [2, 5]: > 10 µM; IC50 [2, 6]: < 1 µM; IC50 [3, 7]: < 3 µM; IC50 [3, 8]: > 10 µM; IC50 [3, 9]: < 3 µM
O=C(NCC[C@H](O)CO)[C@@H]1N[C@H](CCc2ccccc2)[C@]2(C(=O)Nc3cc(Cl)c(F)cc32)[C@H]1c1cccc(Cl)c1 [MI-701]	> 10	33.8 ± 14.6	16.7 ± 13	3 ± 3.5	48.9 ± 22.4	–
CCC[C@H]1N[C@@H](C(=O)NCC[C@H](O)CO)[C@H](c2cccc(Cl)c2)[C@@]12C(=O)Nc1cc(Cl)c(F)cc12 [MI-702]	> 1	12.7 ± 2.3	5.8 ± 1.7	1.9 ± 0.3	14.3 ± 2.9	–
O=C(NCC[C@H](O)CO)[C@@H]1N[C@H](CCc2cccs2)[C@]2(C(=O)Nc3cc(Cl)c(F)cc32)[C@H]1c1cccc(Cl)c1 [MI-703]	> 1	4.3 ± 1.6	1 ± 0.2	0.2	3.9 ± 0.5	–
O=C(NCC[C@H](O)CO)[C@@H]1N[C@H](CCCc2ccccc2)[C@]2(C(=O)Nc3cc(Cl)c(F)cc32)[C@H]1c1cccc(Cl)c1 [MI-704]	> 1	12.1 ± 1	3 ± 0.9	6.8 ± 0.2	18 ± 5.1	–
CC(C)CC[C@H]1N[C@@H](C(=O)NCC[C@H](O)CO)[C@H](c2cccc(Cl)c2)[C@@]12C(=O)Nc1cc(Cl)c(F)cc12 [MI-705]	< 10	32 ± 33.3	4.4 ± 4	1.4 ± 0.8	43.9 ± 31.7	–
O=C(NCC[C@H](O)CO)[C@@H]1N[C@H](CC2CC2)[C@]2(C(=O)Nc3cc(Cl)c(F)cc32)[C@H]1c1cccc(Cl)c1 [MI-706]	< 10	1.3 ± 0.2	0.6 ± 0.1	0.3	4.6 ± 2.9	–
O=C(NCC[C@H](O)CO)[C@@H]1N[C@H](CCc2ccsc2)[C@]2(C(=O)Nc3cc(Cl)c(F)cc32)[C@H]1c1cccc(Cl)c1 [MI-707]	< 5	1.3 ± 0.2	0.6 ± 0.1	0.3	4.6 ± 2.9	–
CN1[C@@H](C(=O)NCC[C@H](O)CO)[C@H](c2cccc(Cl)c2)[C@@]2(C(=O)Nc3cc(Cl)c(F)cc32)[C@H]1CC(C)(C)C [MI-708A]	> 3	–	–	–	–	IC50 [2, 15]: 95.6 ± 18.2 µM; IC50 [2, 16]: 3.8 ± 1 µM; IC50 [3, 17]: 3.5 µM; IC50 [3, 18]: 83.8 ± 11.3 µM
CN1[C@@H](C(=O)NCC[C@H](O)CO)[C@H](c2cccc(Cl)c2)[C@@]2(C(=O)Nc3cc(Cl)c(F)cc32)[C@H]1CC(C)(C)C [MI-708B]	> 3	–	–	–	–	IC50 [2, 15]: 96.9 ± 17.8 µM; IC50 [2, 16]: 6.6 ± 2.2 µM; IC50 [3, 17]: 6 ± 0.3 µM; IC50 [3, 18]: 84.5 ± 18.3 µM
CN1[C@@H](C(=O)NCC[C@H](O)CO)[C@H](c2cccc(Cl)c2)[C@@]2(C(=O)Nc3cc(Cl)c(F)cc32)[C@H]1CCCc1ccccc1 [MI-709]	> 10	9.4 ± 1.2	9.9 ± 1.7	5.6 ± 1.1	7.2 ± 1.4	–
O=C(NCC[C@H](O)CO)[C@@H]1N[C@H](CCCc2cccs2)[C@]2(C(=O)Nc3cc(Cl)c(F)cc32)[C@H]1c1cccc(Cl)c1 [MI-710]	> 1	12.4 ± 1.2	1.3 ± 0.3	1.2 ± 0.2	12.4 ± 1.9	–

Compound	IC50 [1, 10] [µM]	IC50 [2, 11] [µM]	IC50 [2, 12] [µM]	IC50 [3, 13] [µM]	IC50 [3, 14] [µM]	further results
CN1[C@@H](C(=O)NCC[C@H](O)CO)[C@H](c2cccc(Cl)c2)[C@@]2(C(=O)Nc3cc(Cl)c(F)cc32)[C@H]1CCCc1cccs1 [MI-711]	> 5	6.3 ± 2.9	8.6 ± 1.2	4.8 ± 1.1	9.3 ± 2.5	–
O=C(NCC[C@H](O)CO)[C@@H]1N[C@H](CCC2CCCC2)[C@]2(C(=O)Nc3cc(Cl)c(F)cc32)[C@H]1c1cccc(Cl)c1 [MI-712]	< 3	9.1 ± 1	1.8 ± 0.4	1	7.9 ± 0.2	–
CN1[C@@H](C(=O)NCC[C@H](O)CO)[C@H](c2cccc(Cl)c2)[C@@]2(C(=O)Nc3cc(Cl)c(F)cc32)[C@H]1CCC1CCCC1 [MI-713]	< 10	4.3 ± 0.7	4.9 ± 1.4	2.7 ± 0.7	6.1 ± 2.1	–
CN1[C@@H](C(=O)NCC[C@H](O)CO)[C@H](c2cccc(Cl)c2)[C@@]2(C(=O)Nc3cc(Cl)c(F)cc32)[C@H]1CCc1cccs1 [MI-714]	> 10	7.5 ± 0.3	8.6 ± 0.1	4.3	7.7 ± 1.6	–
O=C(NCC[C@H](O)CO)[C@@H]1N[C@H](CCc2ccco2)[C@]2(C(=O)Nc3cc(Cl)c(F)cc32)[C@H]1c1cccc(Cl)c1 [MI-715B]	< 5	> 10	2.7 ± 1	3 ± 0.7	> 10	–
O=C(NCC[C@H](O)CO)[C@@H]1N[C@H](CCc2ccco2)[C@]2(C(=O)Nc3cc(Cl)c(F)cc32)[C@H]1c1cccc(Cl)c1 [MI-715C]	< 5	–	–	–	–	IC50 [2, 15]: > 10 µM; IC50 [2, 16]: 2.9 ± 0.6 µM; IC50 [3, 17]: 2.2 ± 1.2 µM; IC50 [3, 18]: > 10 µM
O=C(NCC[C@H](O)CO)[C@@H]1N[C@H](CC2CCCCC2)[C@]2(C(=O)Nc3cc(Cl)c(F)cc32)[C@H]1c1cccc(Cl)c1 [MI-716A]	< 3	> 10	1 ± 0.5	1.1 ± 0.5	11.5 ± 0.5	–
O=C(NCC[C@H](O)CO)[C@@H]1N[C@H](CC2CCCCC2)[C@]2(C(=O)Nc3cc(Cl)c(F)cc32)[C@H]1c1cccc(Cl)c1 [MI-716B]	< 1	–	–	–	–	IC50 [2, 15]: 11.5 ± 0.7 µM; IC50 [2, 16]: 0.6 ± 0.2 µM; IC50 [3, 17]: 0.86 ± 0.3 µM; IC50 [3, 18]: 9 ± 2.8 µM
O=C(NCC[C@H](O)CO)[C@@H]1N[C@H](CC2CCCCC2)[C@]2(C(=O)Nc3cc(Cl)c(F)cc32)[C@H]1c1cccc(Cl)c1 [MI-716C]	< 1	–	–	–	–	IC50 [2, 15]: 12 ± 3.4 µM; IC50 [2, 16]: 0.7 ± 0.2 µM; IC50 [3, 17]: 0.8 ± 0.1 µM; IC50 [3, 18]: 8 ± 2 µM
CN1[C@@H](C(=O)NCC[C@H](O)CO)[C@H](c2cccc(Cl)c2)[C@@]2(C(=O)Nc3cc(Cl)c(F)cc32)[C@H]1CC(C)(C)C [MI-717]	> 3	–	–	–	–	IC50 [2, 15]: 47.8 ± 1.4 µM; IC50 [2, 16]: 2.2 ± 0.1 µM; IC50 [3, 17]: 2.7 ± 0.6 µM; IC50 [3, 18]: 31.5 ± 1.4 µM
CN1[C@@H](C(=O)NCC[C@H](O)CO)[C@H](c2cccc(Cl)c2F)[C@@]2(C(=O)Nc3cc(F)c(F)cc32)[C@H]1CC(C)(C)C [MI-718]	> 3	47.2 ± 5	3 ± 1.1	3.7 ± 0.3	34.2 ± 0.4	–
CC(C)(C)C[C@@H]1[C@]2(C(=O)Nc3cc(Cl)c(F)cc32)[C@@H](c2cccc(Cl)c2)[C@H](C(=O)NCC[C@H](O)CO)[N+]1(C)C [MI-719]	> 10	> 100	58.6 ± 14.9	51.2	> 100	–
CCC(C)(C)C[C@H]1N[C@@H](C(=O)NCC[C@H](O)CO)[C@H](c2cccc(Cl)c2)[C@@]12C(=O)Nc1cc(Cl)c(F)cc12 [MI-720]	< 1	19.5 ± 5.6	0.69	0.76 ± 0.1	15.2 ± 3.2	–
CC(C)(C)C[C@H]1N[C@@H](C(=O)NCCN2CCOCC2)[C@H](c2cccc(Cl)c2F)[C@@]12C(=O)Nc1cc(F)c(F)cc12 [MI-721]	< 3	18.4 ± 5.4	1.5 ± 0.3	1.4	15.2 ± 1.4	–
CCC(C)(C)C[C@H]1N(C)[C@@H](C(=O)NCC[C@H](O)CO)[C@H](c2cccc(Cl)c2F)[C@@]12C(=O)Nc1cc(F)c(F)cc12 [MI-723]	< 5	51.3	2.42	2.3	24.7	–

Reference: US9079913B2, “Spiro-oxindole MDM2 antagonists” (The Regents of the University of Michigan, priority 2009, dated 2015)
